Measurements from patent US20030008925A1, “Treatment of drug-induced sleepiness” (priority 1997, published 2003).

What was measured:
Format in all cases: in vivo, human
[1] = test system: patient under morphine treatment; experiment: Sleepiness evaluated on the Epworth scale in hospitalized patients under morphine treatment
Text: the Epworth scale, while ensuring the analgesic properties of morphine and the properties of antidepressant, anxiolytic or analgesic medicaments are maintained. The patient is thus re-established in a satisfactory relational life.
(§1) In order to illustrate the invention, but without limiting its scope, the results of observations made confidentially on patients in the context of hospitalization are reported below. The consent of the patients was obtained after the compassionate grounds of the prescription had been explained to them.

[2] = Body weight (nutritional recovery) of patient; settings: Case 1; in 10 days, under Moscontin plus Modiodal 200 mg
Description: Given the progression of painful phenomena, at the end of October 1997 the patient is hospitalized. At this point in time the dosage of Moscontin® is 100 mg twice every 24 hours, their EVA score is 60, and their sleepiness evaluated on the Epworth scale is 20. The Moscontin® is increased to 160 mg twice every 24 hours. After stabilization of the analgesic level at an EVA score of 30, treatment with Modiodal®, initially in a dosage of 100 mg and then rapidly 200 mg, is initiated. This dosage allows their Epworth score to drop below 10. This quality of awakening has enabled them to resume family relationships of a better quality. The efficacy of the analgesia and their better vigilance level has enabled them to take accompanied walks. A nutritional recovery manifesting itself by a weight increase of 2 kg in 10 days is also to be noted in this patient.

[3] = test system: patient under morphine treatment; experiment: Pain rating on the EVA scale in patients
Text: as §1

[4] = Case 2, Skenan doses doubled combined with 200 mg Modiodal
[5] = Case 5, morphine treatment at home (oral)

## NC(=O)C[S+]([O-])C(c1ccccc1)c1ccccc1 (stereo not drawn) [Modiodal®, benzhydrylsulphinyl-acetamide]
[1]; Case 1, Modiodal 100 mg then 200 mg, with Moscontin 160 mg twice every 24 hours
  Epworth score: below 10
[1]; [4]
  vigilance level rating (Epworth): less than 10
[1]; Case 3, Modiodal 100 mg then 200 mg, with morphine 40 mg subcutaneous
  state of vigilance rating (Epworth): 12
[1]; Case 4, modafinil 300 mg achieved progressively, with Moscontin 100 mg x2
  sleepiness index after modafinil: 11
[1]; Case 5, modafinil 200 mg per day, with morphine 40 mg subcutaneous
  sleepiness index after modafinil: 15
[1]; about 200 to 400 mg per day, in 1 or 2 doses
  clinical results (in words): very favourable results
[1]; summary of pilot cases 1 to 5
  effect on morphine sleepiness and that associated with clonazepam (in words): efficacy
[2]
  weight increase: 2 kg
[3]; [4]
  EVA (analgesic level): 20

## O=C(C[S+]([O-])C(c1ccccc1)c1ccccc1)NO (stereo not drawn) [Olmifon®, benzhydrylsulphinyl-acetohydroxamic acid]
[1]; about 1,200 to 1,800 mg per day, in 2 doses
  clinical results (in words): very favourable results

## CN1CC[C@]23c4c5ccc(O)c4O[C@H]2[C@@H](O)C=C[C@H]3[C@H]1C5 [morphine]
[1]; Case 3, morphine 40 mg subcutaneous, before Modiodal
  state of sleepiness on the Epworth scale: 20
[1]; [5]
  sleepiness (in words): severe sleepiness
[1]; Case 5, under morphine, before modafinil
  sleepiness index before modafinil: 22
[3]; Case 3, continuous subcutaneous morphine combined with oral clonazepam
  pain rating on the EVA scale: 30
[3]; [5]
  EVA: 40
